Data set [1] concerns HBV replication in HepAD38 cells. The data set is described as follows: Anti-HBV replication assay in HepAD38 cells (QPCR of extracellular HBV DNA). Format: cell-based, HBV (genotype D, serotype ayw). The following applies: Hepatitis B virus, 168 h, 7 days incubation, extracellular HBV DNA by QPCR, read-out: Anti-HBV EC50. A digest of the protocol: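 Compounds (1 log10 serial dilutions, […]) were left 7 days on tetracycline-free HepAD38 cultures, a HepG2 line with tet-controlled HBV genotype D. EC50 came from 4-parameter regression of percent inhibition versus vehicle, using supernatant HBV DNA copies/mL measured by QPCR.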

A short description of data set [2]: In vitro cytotoxicity assay (MTT cell viability) in HepG2 cells. The following applies: human. Format: cell-based, human. The procedure, abridged: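 HepG2 cells incubated 7 days at 37 °C, 5% CO2 with compounds from 30 μM to 1.0 nM (8 half-log dilutions). Viability read as MTT formazan absorbance at 492 nm, normalised to vehicle controls; CC50 from 4-parameter non-linear regression.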

The term EC50 denotes the concentration giving half of the maximal effect. Usually CC50 stands for the concentration at which the toxic effect on the cells reaches its halfway point. Higher therefore signals lower toxicity to the cells.

SMILES strings stand for the structures.

With `Cc1c(C(=O)Nc2ccc(F)c(Cl)c2)c(C)n(C)c1C(=O)C(=O)NC1CCC(F)(F)CC1` [Example 314, N-(3-chloro-4-fluorophenyl)-5-(2-((4,4-difluorocyclohexyl)amino)-2-oxoacetyl)-1,2,4-trimethyl-1H-pyrrole-3-carboxamide], the EC50 in data set [1] was less than 50 nM. In data set [2], the CC50 at 7 days is 5000 to 30000 nM.

With `Cc1cc(NC(=O)c2c(C)c(C(=O)C(=O)NC(C)(C)CN3CCOCC3)n(C)c2C)cnc1F` [Example 351, N-(6-fluoro-5-methylpyridin-3-yl)-1,2,4-trimethyl-5-(2-((2-methyl-1-morpholiinopropan-2-yl)amino)-2-oxoacetyl)-1H-pyrrole-3-carboxamide], the EC50 in data set [1] lay within 50 to 499 nM. In data set [2], the CC50 at 7 days was greater than 30000 nM.

In the case of `Cc1cc(NC(=O)c2c(Cl)c(C(=O)C(=O)NCC(C)(C)CO)n3c2CCC3)cnc1F` [Example 577, 6-chloro-N-(6-fluoro-5-methylpyridin-3-yl)-5-(2-((3-hydroxy-2,2-dimethylpropyl)amino)-2-oxoacetyl)-2,3-dihydro-1H-pyrrolizine-7-carboxamide], the EC50 in data set [1] was greater than 1000 nM. In addition, the CC50 at 7 days in data set [2] was greater than 30000 nM.

Turning to `Cc1cc(NC(=O)c2c(C)c(C(=O)C(=O)NC(C)(C)C(=O)OC(C)(C)C)n(C)c2C)ccc1F` [Example 22, tert-butyl 2-(2-(4-((4-fluoro-3-methylphenyl)carbamoyl)-1,3,5-trimethyl-1H-pyrrol-2-yl)-2-oxoacetamido)-2-methylpropanoate], the EC50 in data set [1] was less than 50 nM. The CC50 at 7 days in data set [2] was greater than 30000 nM.

For `Cc1cc(NC(=O)c2c(C)c(C(=O)C(=O)NC(C)(C)c3nc(CN(C)C)no3)n(CCF)c2C)ccc1F` [Example 202, 5-(2-((2-(3-((dimethylamino)methyl)-1,2,4-oxadiazol-5-yl)propan-2-yl)amino)-2-oxoacetyl)-N-(4-fluoro-3-methylphenyl)-1-(2-fluoroethyl)-2,4-dimethyl-1H-pyrrole-3-carboxamide], the EC50 in data set [1] lay within 50 to 499 nM. In addition, the CC50 at 7 days in data set [2] is greater than 30000 nM.

On to `CC(C)(O)CNC(=O)C(=O)c1c(Cl)c(C(=O)Nc2ccc(F)c(Cl)c2)c2n1CCC2` [Example 557, 6-chloro-N-(3-chloro-4-fluorophenyl)-5-(2-((2-hydroxy-2-methylpropyl)amino)-2-oxoacetyl)-2,3-dihydro-1H-pyrrolizine-7-carboxamide], for which the EC50 in data set [1] is less than 50 nM. For the same compound, in data set [2], the CC50 at 7 days was in the range of 5000 to 30000 nM.

As for `Cc1cc(NC(=O)c2c(Cl)c(C(=O)C(=O)NC3(CO)CCC3)n3c2CCC3)ccc1F` [Example 541, 6-chloro-N-(4-fluoro-3-methylphenyl)-5-(2-((1-(hydroxymethyl)cyclobutyl)amino)-2-oxoacetyl)-2,3-dihydro-1H-pyrrolizine-7-carboxamide], the EC50 in data set [1] is less than 50 nM. This compound registered a CC50 at 7 days in data set [2] greater than 30000 nM.

Regarding `Cc1cc(NC(=O)c2c(C)c(C(=O)C(=O)NC(C)(C)C)n3c2CCCC3)ccc1F` [Example 434, 3-(2-(tert-butylamino)-2-oxoacetyl)-N-(4-fluoro-3-methylphenyl)-2-methyl-5,6,7,8-tetrahydroindolizine-1-carboxamide], the EC50 in data set [1] was less than 50 nM. The CC50 at 7 days in data set [2] is greater than 30000 nM.

On to `Cc1cc(NC(=O)c2c(Cl)c(C(=O)C(=O)NC(C)(C)CO)n3c2CCCC3)ccc1F` [Example 490, 2-chloro-N-(4-fluoro-3-methylphenyl)-3-(2-((1-hydroxy-2-methylpropan-2-yl)amino)-2-oxoacetyl)-5,6,7,8-tetrahydroindolizine-1-carboxamide], for which the EC50 in data set [1] was less than 50 nM. In data set [2], this compound gave a CC50 at 7 days greater than 30000 nM.

For `Cc1cc(NC(=O)c2c(C)c(C(=O)C(=O)NC3CCS(=O)(=O)CC3)n(C)c2C)ccc1F` [Example 249, 5-(2-((1,1-dioxidotetrahydro-2H-thiopyran-4-yl)amino)-2-oxoacetyl)-N-(4-fluoro-3-methylphenyl)-1,2,4-trimethyl-1H-pyrrole-3-carboxamide], in data set [1], the EC50 is less than 50 nM. The compound further showed a CC50 at 7 days in data set [2] of 5000 to 30000 nM.

Consider `Cc1c(C(=O)Nc2ccc(F)c(F)c2)c2n(c1C(=O)C(=O)NCC(C)(C)O)CCCC2` [Example 462, N-(3,4-difluorophenyl)-3-(2-((2-hydroxy-2-methylpropyl)amino)-2-oxoacetyl)-2-methyl-5,6,7,8-tetrahydroindolizine--1 carboxamide], for which the EC50 in data set [1] was in the range of 50 to 499 nM. This compound yielded a CC50 at 7 days in data set [2] greater than 30000 nM.

For the compound `Cc1cc(NC(=O)c2c(C)c(C(=O)C(=O)N[C@H]3CC[C@H](O)CC3)n(C)c2C)cnc1F` [Example 175, N-(6-fluoro-5-methylpyridin-3-yl)-5-(2-(((1r,4r)-4-hydroxycyclohexyl)amino)-2-oxoacetyl)-1,2,4-trimethyl-1H-pyrrole-3-carboxamide], in data set [1], the EC50 is 50 to 499 nM. The CC50 at 7 days in data set [2] was greater than 30000 nM.

As for `Cc1noc([C@@H](C)NC(=O)C(=O)c2c(Cl)c(C(=O)Nc3ccc(F)c(C)c3)c3n2CCC3)n1` [Example 546, (R)-6-chloro-N-(4-fluoro-3-methylphenyl)-5-(2-((1-(3-methyl-1,2,4-oxadiazol-5-yl)ethyl)amino)-2-oxoacetyl)-2,3-dihydro-1H-pyrrolizine-7-carboxamide], the EC50 in data set [1] is less than 50 nM. The compound further yielded a CC50 at 7 days in data set [2] greater than 30000 nM.

With `Cc1cc(NC(=O)c2c(C)c(C(=O)C(=O)NC3CCN(C)C(=O)C3)n(C)c2C)ccc1F` (stereo not drawn) [Example 609, N-(4-fluoro-3-methylphenyl)-1,2,4-trimethyl-5-(2-((1-methyl-2-oxopiperidin-4-yl)amino)-2-oxoacetyl)-1H-pyrrole-3-carboxamide], in data set [1], the EC50 is less than 50 nM. Besides, the CC50 at 7 days in data set [2] is greater than 30000 nM.

For `Cc1cc(NC(=O)c2c(C)c(C(=O)C(=O)NC3CCN(C4COC4)CC3)n(C)c2C)ccc1F` [Example 652, N-(4-fluoro-3-methylphenyl)-1,2,4-trimethyl-5-(2-((1-(oxetan-3-yl)piperidin-4-yl)amino)-2-oxoacetyl)-1H-pyrrole-3-carboxamide], the EC50 in data set [1] was less than 50 nM. Moreover, the CC50 at 7 days in data set [2] was greater than 30000 nM.

For `Cc1cc(NC(=O)c2c(C)c(C(=O)C(=O)N[C@]3(C(F)(F)F)CC[C@H](O)CC3)n(C)c2C)ccc1F` [Example 282, N-(4-fluoro-3-methylphenyl)-5-(2-(((1s,4s)-4-hydroxy-1-(trifluoromethyl)cyclohexyl)amino)-2-oxoacetyl)-1,2,4-trimethyl-1H-pyrrole-3-carboxamide], the EC50 in data set [1] is less than 50 nM. In addition, the CC50 at 7 days in data set [2] was greater than 30000 nM.

For `Cc1cc(NC(=O)c2c(C)c(C(=O)C(=O)NC3CCN(c4ccccn4)CC3)n(C)c2C)ccc1F` [Example 657, N-(44-fluoro-3-methylphenyl)-1,2,4-trimethyl-5-(2-oxo-2-((1-(pyridin-2-yl)piperidin-4-yl)amino)acetyl)-1H-pyrrole-3-carboxamide], in data set [1], the EC50 was less than 50 nM. For the same compound, the CC50 at 7 days in data set [2] lay within 5000 to 30000 nM.

For the compound `Cc1cc(NC(=O)c2c(Cl)c(C(=O)C(=O)NC3(CO)CC(F)(F)C3)n3c2CCC3)ccc1F` [Example 548, 6-chloro-5-(2-((3,3-difluoro-1-(hydroxymethyl)cyclobutyl)amino)-2-oxoacetyl)-N-(4-fluoro-3-methylphenyl)-2,3-dihydro-1H-pyrrolizine-7-carboxamide], in data set [1], the EC50 was less than 50 nM. Also, the CC50 at 7 days in data set [2] fell in the range of 5000 to 30000 nM.

On to `Cc1cc(NC(=O)c2c(C)c(C(=O)C(=O)NC3CCN(C4CCOCC4)CC3)n(C)c2C)ccc1F` [Example 653, N-(4-fluoro-3-methylphenyl)-1,2,4-trimethyl-5-(2-oxo-2-((1-(tetrahydro-2H-pyran-4-yl)piperidin-4-yl)mino)acetyl)-1H-pyrrole-3-carboxamide], for which the EC50 in data set [1] is 50 to 499 nM. Moreover, the CC50 at 7 days in data set [2] is greater than 30000 nM.

Consider `Cc1cc(NC(=O)c2c(C)c(C(=O)C(=O)N[C@H](CO)[C@@H](C)O)n(C)c2C)cnc1F` [Example 185, 5-(2-(((2R,3R)-1,3-dihydroxybutan-2-yl)amino)-2-oxoacetyl)-N-(6-fluoro-5-methylpyridin-3-yl)-1,2,4-trimethyl-1H-pyrrole--3 carboxamide], for which the EC50 in data set [1] is 500 to 1000 nM. The CC50 at 7 days in data set [2] was greater than 30000 nM.

`Cc1cc(NC(=O)c2c(C)c(C(=O)C(=O)N[C@H]3CC[C@@H](O)C3)n(C)c2C)ccc1F` [Example 245, N-(4-fluoro-3-methylphenyl)-5-(2-(((1S,3R)-3-hydroxycyclopentyl)amino)-2-oxoacetyl)-1,2,4-trimethyl-1H-pyrrole-3-carboxamide]: the EC50 in data set [1] is less than 50 nM. In addition, the CC50 at 7 days in data set [2] was greater than 30000 nM.

Consider `CC[C@H](C)NC(=O)C(=O)c1c(Cl)c(C(=O)Nc2cnc(F)c(C)c2)c2n1CCC2` [Example 733, (S)-5-(2-(sec-butylamino)-2-oxoacetyl)-6-chloro-N-(6-fluoro-5-methylpyridin-3-yl)-2,3-dihydro-1H-pyrrolizine-7-carboxamide], for which, in data set [1], the EC50 is less than 50 nM. This compound also showed a CC50 at 7 days in data set [2] of 5000 to 30000 nM.

As for `Cc1cc(NC(=O)c2c(C)c(C(=O)C(=O)N[C@H]3COC[C@@H]3O)n(CCF)c2C)ccc1F` [Example 130, N-(4-fluoro-3-methylphenyl)-1-(2-fluoroethyl)-5-(2-(((3S,4R)-4-hydroxytetrahydrofuran-3-yl)amino)-2-oxoacetyl)-2,4-dimethyl-1H-pyrrole-3-carboxamide], in data set [1], the EC50 was 50 to 499 nM. The CC50 at 7 days in data set [2] was greater than 30000 nM.

Turning to `Cc1cc(NC(=O)c2c(C)c(C(=O)C(=O)NC(C)(C)C(C)(C)O)n(C)c2C)ccc1F` [Example 617, N-(4-fluoro-3-methylphenyl)-5-(2-((3-hydroxy-2,3-dimethylbutan-2-yl)amino)-2-oxoacetyl)-1,2,4-trimethyl-1H-pyrrole-3-carboxamide], the EC50 in data set [1] is less than 50 nM. In addition, the CC50 at 7 days in data set [2] is greater than 30000 nM.

These data come from patent publication US20190375708A1 (VenatoRx Pharmaceuticals, Inc., priority 2018, published 2019).
